Like-named read-outs stand apart in the source and are kept apart here.
How the values were obtained:
[1] = target: T1, PARP1 (Homo sapiens, UniProt P09874); assay: Colorimetric PARP1 activity assay (Trevigen), IC50 determination; type: biochemical
T1 construct: purchased Trevigen, Gaithersburg, Md
Method: A commercially available colorimetric assay (Trevigen, Gaithersburg, Md.) was used to measure PARP activity in vitro in the presence of inhibitors. […] All experiments were carried out in triplicate. […] All reaction mixtures were adjusted to a final volume of 50 μL and a maximum final concentration 0.4% DMSO in assay buffer. The remainder of the assay was performed according to the manufacturer's instructions. PARP activity was measured by absorbance at 450 nm in each well using a Safire 2 microplate reader (Tecan Group, Männedorf, Switzerland). IC50 values were calculated using Prism software (GraphPad, La Jolla, Calif.).
A commercially available colorimetric assay (Trevigen, Gaithersburg, Md.) was used to measure PARP activity in vitro in the presence of inhibitors. […] All experiments were carried out in triplicate. […] All reaction mixtures were adjusted to a final volume of 50 μL and a maximum final concentration 0.4% DMSO in assay buffer. The remainder of the assay was performed according to the manufacturer's instructions. PARP activity was measured by absorbance at 450 nm in each well using a Safire2 microplate reader. IC50 values were calculated using the Prism software package.

[2] = tested on: HT-1080 cells expressing H2B-apple; assay: Intravital imaging, window chamber mice with HT-1080 H2B-apple cells; type: in vivo
Method: For the in vivo studies, mice with window chambers were implanted with 1 million HT-1080 cells expressing H2B-apple fluorescence protein. 75 nmol of AZD2281-BODIPYFL were dissolved in 75 μL of 1:1:DMAC:solutol and 75 μL of PBS and injected via tail vein. Images of the vessels were taken using a 20× water immersion objective on a laser scanning confocal microscope while the mouse was anesthetized with isoflurane.

[3] = tested on: SKOV-3, MIA Paca2, A2780, Panc-1 tumors; assay: Tumor versus muscle fluorescence uptake in Nu/Nu mice, excised tissues; type: in vivo; details: 75 nmol via tail vein, 45 minutes
Method: For ^18F-AZD2281 standardized uptake values, five Nu/Nu mice each received four subcutaneous injections containing SKOV-3, MIA Paca2, A2780, or Panc-1 cells in the flanks and shoulders (2.5×10^6 cells in 100 μL 70:30 PBS/BD matrigel per injection) (BD Biosciences, Bedford, Mass.). Tumors were allowed to grow for two weeks before imaging. 75 nmol of AZD2281-BODIPYFL were dissolved in 75 μL of 1:1:DMAC:solutol and 75 μL of PBS and injected via tail vein. The agent was allowed to circulate and clear for 45 minutes, before the mice were sacrificed, tumors and muscle tissue excised and the relative fluorescence uptake of tissues quantified against mice which were injected with just 1:1:DMAC:solutol.

[4] = tested on: PARP1/PARP2; assay: Comparison of AZD2281-BODIPY FL uptake and PARP1/PARP2 expression in cell lines; type: cell-based; details: fixed cells, 20 minutes incubation
Method: RAW 264.7, Panc-1, MIA Paca2, A2780, OVCAR429, UCI 101, UCI 107, SKOV-3, OVCAR-3, and OV-90 cells (200 μL, 35,000 cells/mL) were each seeded in their respective growth medium on 96-well plates and allowed to attach for 48 hours. […] Cells were then fixed with paraformaldehyde (4% in PBS) and washed with ice cold PBS/0.1% Triton X-100/0.5% bovine serum albumin (3×200 μL, 3rd wash left for 30 min). Cells were incubated with anti-PARP-1/2 Rab (1:50; SCBT, Santa Cruz, Calif.) at 4° C. overnight. Cells were washed with PBS/0.1% Triton X-100 (3×200 μL) before stained with secondary IgG-Cy5 Gab (1:100; Millipore, Billerica, Mass.) for 3 h at 4° C. Cells were then washed with PBS (1×, 200 μL), stained with Hoechst (Invitrogen, Carlsbad, Calif.) and blue whole cell stain (Thermo Scientific, Waltham, Mass.) for 30 minutes at room temperature, and washed with PBS (3×, 200 μL) before imaging and quantification of the respective fluorescence signals.

[5] = tested on: HT1080 cells; assay: Life cell imaging, in vitro uptake and clearance kinetics; type: cell-based
Method: For in vitro kinetic studies, HT1080 cells were labeled with a 1 μM concentration of AZD2281 fluorophore conjugate in cell culture medium and imaged on an inverted Deltavision epifluorescence microscope using a 37° C. heated stage and 5% CO2 atmosphere for various times. After subtracting the background fluorescence, the data were fitted to an exponential association curve. […] Cells were washed twice in cell culture media and imaged continuously (BODIPYFL conjugate) or after various time points (BODIPY578 and BODIPY650). The loss in fluorescence was fitted to a biexponential decay curve.

[6] = tested on: MDA-MB-436 tumors; assay: PET-CT imaging of MDA-MB-436 tumor-bearing mice, with and without AZD2281; type: in vivo; details: 1 mg AZD2281 BID, then re-injection of probe
Method: Non-tumor bearing Nu/Nu mice were injected with (6^18F) and used for organ distribution immediately after injection over a time period of 2 hours. Tumor-bearing mice received s.c. injections with 5×10^6 MDA-MB-436 cells (American Type Culture Collection) in Matrigel (BD Biosciences) into each flank and underwent imaging 7 days later (injection of (6^18F) and immediate imaging over a time period of 2 hours). All mice were anesthetized (isoflurane 1.5%; O2 2 L/min) during imaging with a gas delivery system integrated into a multimodal imaging cartridge. All animal experiments were approved by Massachusetts General Hospital's Institutional Review Committee.
Images were acquired on the Siemens Inveon PET-CT. Each PET acquisition was 120 minutes in duration. PET was reconstructed from 600 million coincidental 511 keV photon counts on a series of LSO (lutetium oxyorthosilicate) scintillating crystals. Counts were rebinned in 3D by registering photons spanning no more than 3 consecutive rings and reconstructed into sinograms using a high resolution Fourier Rebin algorithm. Sinograms also yielded a 3D mapping of positron signal using a 2D filtered back-projection algorithm and a Ramp filter with a Nyquist cut-off of 0.5. […] Data are expressed as standard uptake values (SUV), which normalizes activity measurements to body weight and injected activity. […]

[7] = tested on: A2780 tumors; assay: Non-invasive monitoring of treatment response in tumor-bearing Nu/Nu mice (SUV); type: in vivo; details: treatment with Olaparib
Method: ^18F-AZD2281 was synthesized as described herein. Nu/Nu mice bearing either A2780 tumors (treatment response) or A2780, Paca2, Panc1 and SKOV3 (differential uptake) were injected with the hot probe (500-750 μCi) and imaged ˜1.5 hours thereafter. Treatment consisted of injection of 0.5-1.0 mg AZD2281 (Olaparib) 18 hours before imaging (ip, interperitoneal) or ˜1.5-3.5 hours before imaging (iv, intravenous). Uptake was determined non-invasively by drawing SUVs (Standard Uptake Values).

[8] = tested on: MDA-MB-436 cells; assay: AZD2281-TCO / Texas Red-Tz bioorthogonal reaction and imaging in live MDA-MB-436 cells; type: cell-based; details: sequential AZD2281-TCO (7)/Texas Red-Tz (8)
Method: Cells were then incubated with Texas Red-Tz (8) (25 μL, 20 μM) for 20 minutes (37° C.) before the medium was removed and cells were washed (1×, medium, 500 μL). […] Cells were washed with PBS (3×500 μL), fixed with paraformaldehyde (4% in PBS) and washed with PBS (3×500 μL, time between each wash=5 minutes). PBS was removed and cells mounted using Prolong Gold (Invitrogen, Carlsbad, Calif.) before imaging.
Cells were then incubated with Texas Red-Tz (8) (25 μL, 20 μM) for 20 minutes (37° C.) before the medium was removed and cells were washed (1×, medium, 500 μL). […] Cells were washed with PBS (3×500 μL), fixed with paraformaldehyde (4% in PBS) and washed with PBS (3×500 μL, time between each wash=5 min). […]
Cells were observed on a Nikon 80i (Nikon, Tokyo JP) microscope equipped with an ImagEM camera (Hammamatsu Photonics, Tokyo JP). […] For each image, both cell structures and nuclei structures have been obtained using the appropriate fluorescence filters and appropriate excitation signal levels to avoid collecting auto-fluorescence. […] Within each image and for each cell, the fluorescence signal for the total cell and the signal in the nuclear area was calculated using the corresponding mask as a spatial filter. […] The ratio of the fluorescent signal in the cytosol region over the signal in the nuclear region was then calculated. […]

[9] = 1 μM, HT1080, exponential association fit
[10] = labeled at 1 μM for 1 hour, washed, biexponential decay fit

T1 sequence (P09874 whole entry): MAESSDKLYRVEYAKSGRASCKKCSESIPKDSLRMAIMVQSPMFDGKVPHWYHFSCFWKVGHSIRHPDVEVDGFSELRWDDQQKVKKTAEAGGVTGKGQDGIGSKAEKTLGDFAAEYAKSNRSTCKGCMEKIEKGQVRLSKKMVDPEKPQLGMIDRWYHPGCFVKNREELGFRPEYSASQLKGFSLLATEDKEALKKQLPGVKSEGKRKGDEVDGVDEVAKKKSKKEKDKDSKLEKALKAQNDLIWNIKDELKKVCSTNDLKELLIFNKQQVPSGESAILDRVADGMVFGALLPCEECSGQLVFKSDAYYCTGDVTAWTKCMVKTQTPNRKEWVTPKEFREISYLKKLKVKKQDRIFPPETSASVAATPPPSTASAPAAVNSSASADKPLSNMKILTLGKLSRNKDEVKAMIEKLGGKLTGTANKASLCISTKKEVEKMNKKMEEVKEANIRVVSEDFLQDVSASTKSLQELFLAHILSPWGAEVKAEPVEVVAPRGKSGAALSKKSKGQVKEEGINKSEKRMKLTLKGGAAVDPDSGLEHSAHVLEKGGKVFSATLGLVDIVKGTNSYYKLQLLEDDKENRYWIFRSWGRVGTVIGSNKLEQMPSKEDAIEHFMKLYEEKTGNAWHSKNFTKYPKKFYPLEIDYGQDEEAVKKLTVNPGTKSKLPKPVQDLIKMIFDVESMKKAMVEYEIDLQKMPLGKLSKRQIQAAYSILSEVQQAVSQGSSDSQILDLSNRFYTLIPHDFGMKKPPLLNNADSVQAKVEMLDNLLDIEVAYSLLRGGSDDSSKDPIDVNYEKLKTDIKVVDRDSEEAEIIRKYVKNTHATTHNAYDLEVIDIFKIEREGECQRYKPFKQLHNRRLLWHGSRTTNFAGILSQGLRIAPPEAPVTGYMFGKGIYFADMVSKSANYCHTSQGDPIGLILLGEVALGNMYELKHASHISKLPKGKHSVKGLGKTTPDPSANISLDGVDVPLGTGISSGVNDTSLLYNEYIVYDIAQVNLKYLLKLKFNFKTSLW

For `O=C(CCCC(=O)N1CCN(C(=O)c2cc(Cc3n[nH]c(=O)c4ccccc34)ccc2F)CC1)NCCNC(=O)C1C[C@@H]2C=C[C@H]1C2` (stereo partly shown) [AZD2281-NOB], the IC50 ([1]; Example 1, 0.5 units PARP HSA, 10 minutes, read-out: IC50) was 10.1 ± 1.3 nM.
`O=C(CF)N1CCN(C(=O)c2cc(Cc3n[nH]c(=O)c4ccccc34)ccc2F)CC1` [17^19F] was tested, and the IC50 [1] was 5.2 ± 1.1 nM.
`Cc1cc(C)n2c1C=C1C=CC(CCC(=O)N3CCN(C(=O)c4cc(Cc5n[nH]c(=O)c6ccccc56)ccc4F)CC3)=[N+]1[B-]2(F)F` [AZD2281-BODIPY FL] was tested, and the “time after which non-specific uptake cleared, revealing nuclear uptake” value ([2]; 75 nmol via tail vein) was 1 h, the “distribution in tumor after iv injection” value ([2]; first in vascular system, then tumor cells) was “concentrates in each and every tumor cell of the tumor” and the “uptake in muscle compared to tumor tissues” value [3] was “very little of the compound gets taken up by muscle cells compared to the tumor tissues”. For the same compound, the cellular localization [4] was “localizes with the nucleus”, the “Uptake, Nucleus” value [5, 9] was “Nucleus = 1.1 min” and the “Uptake, Perinuclear” value [5, 9] was “Perinuclear = 1.2 min”. For the same compound, the “Clearance (weighted), Nucleus” value [5, 10] was “Nucleus = slow” and the “Clearance (weighted), Perinuclear” value [5, 10] was “Perinuclear = 1.7 min”.
For `O=C(c1cc(Cc2n[nH]c(=O)c3ccccc23)ccc1F)N1CCN(C(=O)C2CC2)CC1` [AZD2281], the “effect on uptake of 18F-AZD2281 into tumors” value [6] was “inhibition of the probe s uptake into the tumors”.
In the case of `OC[C@H]1O[C@@H](O)[C@H]([18F])[C@@H](O)[C@@H]1O` [FDG], the “ability to distinguish between treated and untreated tumors (tumor/muscle signal intensity)” value [7] is reported as “not able”.
`O=C(CCCC(=O)N1CCN(C(=O)c2cc(Cc3n[nH]c(=O)c4ccccc34)ccc2F)CC1)NCCNC(=O)OC1CC/C=C/CCC1` (stereo not shown) [AZD2281-TCO] was tested, and the “spatial correlation of Texas Red staining with anti-PARP1 Mab staining” value [8] was “excellent spatial correlation”.

From patent publication US9649394B2, “Compositions and methods for in vivo imaging” (The General Hospital Corporation, priority 2010, dated 2017)
